In patent publication US6469008B2, “(R)-hydroxynefazodone antipsychotic therapy” (Sepracor Inc., priority 1999, dated 2002):

Key:
Human D2 receptor = molecular target: T1, Human D2 receptor (Homo sapiens, UniProt P14416); experiment: Dopamine D2 receptor binding; conditions: [3H]spiperone, transfected A9L cell membranes
T1 construct: expressed in transfected cells; host or cells: A9L cells
Experimental: (§1) Dopamine and serotonin receptor binding assays were performed in a standard manner with the incubation of membrane preparations in an assay buffer in the presence of a known radioactively labeled specific ligand for the receptor subtypes. Nonspecific binding was determined by assessing binding in the presence of excess ligand. Specific binding was measured as the total labeled ligand bound after the nonspecific binding was subtracted. The effect of the tested agents was measured by determining the competition for the receptor binding across a concentration range. Subsequently, an IC50 was determined for the agents tested. More specific details are provided below for several of the assays performed.
(§2) Aliquots of transfected A9L cell membrane preparations corresponding to 20-40 μg protein are incubated for 60 min at 22° C. in 250 μl of 50 mM Tris-HCl buffer (pH 7.4) containing 120 mM NaCl, 5 mM KCl, 5 mM MgCl2, 1 mM EDTA, 0.3 nM [^3H]spiperone and increasing concentrations of the competing drugs. Nonspecific binding is determined in the presence of 10 μM (+)butaclamol. After incubation, the samples are filtered rapidly under vacuum through glass fiber filters (GF/B, Packard) and rinsed several times with ice-cold 50 mM Tris-HCl using a cell harvester (Packard). Bound radioactivity is measured with a scintillation counter (Topcount, Packard) using a liquid scintillation cocktail (Microscint 0, Packard). The reference compound for this assay is (+)butaclamol.

5-HT1B = molecular target: T2, 5-HT1B (Homo sapiens, UniProt P28222); experiment: 5-HT1B receptor binding; conditions: read-out: Serotonin Receptor Binding 5-HT1B (IC50)
T2 construct: host or cells: membrane preparations
T2 sequence (P28222 whole entry, species assumed): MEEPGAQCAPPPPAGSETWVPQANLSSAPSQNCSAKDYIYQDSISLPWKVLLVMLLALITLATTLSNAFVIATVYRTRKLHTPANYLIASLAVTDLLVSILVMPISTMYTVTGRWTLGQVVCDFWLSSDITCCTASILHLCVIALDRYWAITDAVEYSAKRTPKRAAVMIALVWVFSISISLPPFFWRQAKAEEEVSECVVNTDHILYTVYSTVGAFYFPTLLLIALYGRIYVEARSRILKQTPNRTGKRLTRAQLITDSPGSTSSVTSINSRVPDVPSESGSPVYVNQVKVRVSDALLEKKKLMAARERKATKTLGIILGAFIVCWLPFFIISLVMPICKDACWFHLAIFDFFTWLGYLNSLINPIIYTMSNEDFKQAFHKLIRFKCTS
Experimental: as §1

5-HT1D = molecular target: T3, 5-HT1D (Homo sapiens, UniProt P28221); experiment: 5-HT1D receptor binding; conditions: read-out: Serotonin Receptor Binding 5-HT1D (IC50)
T3 construct: host or cells: membrane preparations
T3 sequence (P28221 whole entry, species assumed): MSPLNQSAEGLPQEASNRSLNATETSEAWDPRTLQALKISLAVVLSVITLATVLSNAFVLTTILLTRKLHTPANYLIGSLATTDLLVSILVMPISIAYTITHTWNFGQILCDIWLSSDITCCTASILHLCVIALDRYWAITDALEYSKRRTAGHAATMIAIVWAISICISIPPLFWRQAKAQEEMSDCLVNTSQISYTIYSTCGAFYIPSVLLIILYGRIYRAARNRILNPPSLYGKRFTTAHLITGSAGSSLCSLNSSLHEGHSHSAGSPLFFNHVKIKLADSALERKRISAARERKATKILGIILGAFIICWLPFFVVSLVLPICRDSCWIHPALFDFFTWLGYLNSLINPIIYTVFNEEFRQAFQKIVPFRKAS
Experimental: as §1

5-HT5A = molecular target: T4, 5-HT5A (Homo sapiens, UniProt P47898); experiment: 5-HT5A receptor binding; conditions: read-out: Serotonin Receptor Binding 5-HT5A (IC50)
T4 construct: host or cells: membrane preparations
T4 sequence (P47898 whole entry, species assumed): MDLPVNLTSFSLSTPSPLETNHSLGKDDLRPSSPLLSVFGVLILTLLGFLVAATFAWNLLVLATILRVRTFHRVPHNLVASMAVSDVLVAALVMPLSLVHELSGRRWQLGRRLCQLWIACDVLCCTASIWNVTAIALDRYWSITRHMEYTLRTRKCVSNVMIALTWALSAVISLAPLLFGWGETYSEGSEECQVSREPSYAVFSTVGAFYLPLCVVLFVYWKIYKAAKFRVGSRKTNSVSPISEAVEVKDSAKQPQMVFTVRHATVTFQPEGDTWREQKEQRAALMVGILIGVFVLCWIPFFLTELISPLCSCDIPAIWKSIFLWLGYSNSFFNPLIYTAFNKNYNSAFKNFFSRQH
Experimental: as §1

α1 Receptor = experiment: α1 receptor binding; conditions: read-out: α1 Receptor Binding Alpha1 (IC50)
[1] = cited from earlier work
[2] = test system: alpha2 adrenergic receptors; conditions: in vitro binding studies; cited from earlier work
[3] = test system: beta adrenergic receptors; conditions: in vitro binding studies; cited from earlier work
5-HT1A receptors [4] = molecular target: T5, 5-HT1A receptors (Homo sapiens, UniProt P08908); conditions: in vitro binding studies; cited from earlier work
T5 sequence (P08908 1-422): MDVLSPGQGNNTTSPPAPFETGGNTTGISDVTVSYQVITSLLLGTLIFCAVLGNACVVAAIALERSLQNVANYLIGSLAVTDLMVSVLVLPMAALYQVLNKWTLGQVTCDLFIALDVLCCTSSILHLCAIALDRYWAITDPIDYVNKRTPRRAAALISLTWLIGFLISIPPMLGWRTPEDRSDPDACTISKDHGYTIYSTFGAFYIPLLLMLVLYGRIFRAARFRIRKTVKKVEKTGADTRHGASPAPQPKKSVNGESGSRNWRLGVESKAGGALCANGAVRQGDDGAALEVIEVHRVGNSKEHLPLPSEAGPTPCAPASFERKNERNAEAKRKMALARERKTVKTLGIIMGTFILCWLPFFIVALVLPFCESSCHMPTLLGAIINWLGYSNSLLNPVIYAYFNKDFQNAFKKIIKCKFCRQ

cholinergic receptors = conditions: in vitro binding studies; cited from earlier work
dopaminergic receptors = conditions: in vitro binding studies; cited from earlier work
benzodiazepine receptors = conditions: in vitro binding studies; cited from earlier work
[5] = test system: alpha1-adrenergic receptors; conditions: cited from earlier work
5-HT1A receptors [6] = molecular target: T5, 5-HT1A receptors; experiment: 5-HT1A receptor binding; set-up: expressed in transfected cells; host or cells: CHO cells; conditions: [3H]8-OH-DPAT, transfected CHO cell membranes; read-out: Serotonin Receptor Binding 5-HT1A (IC50)
Experimental: as §1
as §2, with “CHO” for “A9L”, “7-15” for “20-40”, “10” for “120”, “MgSO4, 0.5” for “NaCl, 5 mM KCl, 5 mM MgCl2, 1”, “[^3H]8-OH-DPAT” for “[^3H]spiperone”, “8-OH-DPAT.” for “(+)butaclamol.”

T1 sequence (P14416 whole entry): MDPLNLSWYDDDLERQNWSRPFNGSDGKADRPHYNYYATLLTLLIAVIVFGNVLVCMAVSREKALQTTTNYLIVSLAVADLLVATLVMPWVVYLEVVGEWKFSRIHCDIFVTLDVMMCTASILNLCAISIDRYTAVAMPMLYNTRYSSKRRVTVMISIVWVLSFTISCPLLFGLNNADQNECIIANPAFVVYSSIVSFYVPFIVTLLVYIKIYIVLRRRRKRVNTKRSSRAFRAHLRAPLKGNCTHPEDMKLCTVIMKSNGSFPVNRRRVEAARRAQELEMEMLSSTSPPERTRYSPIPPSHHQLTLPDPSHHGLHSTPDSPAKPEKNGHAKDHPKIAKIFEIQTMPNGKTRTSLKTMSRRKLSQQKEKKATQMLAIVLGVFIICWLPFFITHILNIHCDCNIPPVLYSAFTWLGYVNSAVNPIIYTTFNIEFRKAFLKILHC

IC50 (Human D2 receptor): 716 nM
IC50 (5-HT1B): 1870 nM
IC50 (5-HT1D): 925 nM
IC50 (5-HT5A): 1560 nM
IC50 (α1 Receptor): 306 nM
IC50 (5-HT1A receptors [6]): 625 nM
Structure (SMILES): CCc1nn(CCCN2CCN(c3cccc(Cl)c3)CC2)c(=O)n1CCOc1ccccc1 [Nefazodone]
kinetics for dose and time (AUC and Cmax) ([1]; AUC and Cmax increasing more than proportionally with dose and upon multiple dosing): nonlinear kinetics
half-life ([1]; in vivo): 2 to 4 h
time of peak plasma concentrations ([1]; in vivo): about one
absolute bioavailability ([1]; low and variable because of extensive metabolism): about 20%
affinity for alpha2 adrenergic receptors [2]: no significant affinity
affinity for beta adrenergic receptors [3]: no significant affinity
affinity for 5-HT1A receptors (5-HT1A receptors [4]): no significant affinity
affinity for cholinergic receptors (cholinergic receptors): no significant affinity
affinity for dopaminergic receptors (dopaminergic receptors): no significant affinity
affinity for benzodiazepine receptors (benzodiazepine receptors): no significant affinity
action on alpha1-adrenergic receptors [5]: antagonize
